# In US20050153872A1, “Methods and compositions for the treatment of infection” (priority 2004, published 2005):
# Like-named read-outs stand apart in the source and are kept apart here.
# B1: Rev. Ph-CA: Candida albicans alpha mating pheromone at N-terminus (S1) of colicin Ia (protein)
# chain: GFRLTNFGYFEPGMSDPVARGITNPGAESLGYDSDGHEIMAVASPIYVASNPPRVASPVFHGTPPAWSSFGNKTIWGGNEWVASPDSPTRSDIEKRDKEITAYKNTLSAQQKENENKRTEAGKRLSAAIAAREKDENTLKTLRAGNADAADITRQEFRLLQAELREYGFRTEIAGYDALRLHTESRMLFADADSLRISPREARSLIEQAEKRQKDAQNADKKAADMLAEYERRKGILDTRLSELEKNGGAALAVLDAQQARLLGQQTRNDRAISEARNKLSSVTESLNTARNALTRAEQQLTQQKNTPDGKTIVSPEKFPGRSSTNHSIVVSGDPRFAGTIKITTSAVIDNRANLNYLLSHSGLDYKRNILNDRNPVVTEDVEGDKKIYNAEVALAEWDKLRQRLLDARNKITSAESAVASNSARNNLSARTNEQKHANDALNALLKEKENIRNQLSGINQKIAEEKRKQDELKATKDAINFTTEFLKSVSEKYGAKAEQLAREMAGQAKGKKIRNVEEALKTYEKYRADINKKINAKDRAAIAAALESVKLSDISSNLNRFSRGLGYAGKFTSLADWITEFGKAVARGTENWRPLFVKTETIIAGNAATALVALALVFSILTGSALGIIGYGLLMAVTGALIDESLVEKANKFWGI
# modifications: Candida albicans alpha mating pheromone attached to colicin
# What was measured:
# [1] = test system: S. aureus strain ATCC BAA-42 MRSA; conditions: all agents 5 μg/ml
# Acenetobactor (20) = assay: In vitro antibacterial activity (MIC), clinical isolates; type: cell-based
# Protocol: (§1) The following experiments were performed by Lab. of Pharmacology, National Sichuan antibiotic industril institute, Chengdu, Sichuan.
# (§2) The following agents were used to test the in vitro activity of Ph-SA:
# (§3) All the bacterial strains used in the experiments were clinical isolates collected from Sichuan and Beijing in 2002 and identified by West China Hospital, Sichuan University and Chongqing University of Medical Sciences with API system. The following strains were used in the experiments detailed below: Staphylococcus aureus 168 strains (MRSA 80 strains and MSSA 88 strains) Staphylococcus epidermidis 46 strains (MRSE 25 strains and MSSE 21 strains), Enterococcus 20 strains, and Acenetobactor 20 strains. Staphylococcus aureus ATCC25923, 29213 and BAA-42 were used as control strains. Bacterial strains were contacted with one of the above described compounds and MIC50, MIC90 and MICScope were determined.
# [2] = test system: Staphylococcus aureus MRSA strain (80); assay: as above; type: cell-based
# Protocol: as §1, §2, §3
# [3] = test system: Staphylococcus epidermidis MSSE strain (21); assay: as above; type: cell-based; conditions: Staphylococcus epidermidis, 21 MSSE clinical isolates; for MIC50: read-out: MIC50; for MIC90: read-out: MIC90
# Protocol: as §1, §2, §3
# [4] = test system: Staphylococcus epidermidis MRSE strain (25); assay: as above; type: cell-based; conditions: for MIC50 / MIC90: Staphylococcus epidermidis, MRSE
# Protocol: as §1, §2, §3
# Enterococcus (20) = assay: as above; type: cell-based; conditions: 20 Enterococcus clinical isolates; for MIC50: read-out: MIC50; for MIC90: read-out: MIC90
# Protocol: as §1, §2, §3
# [5] = test system: Staphylococcus aureus MSSA strain (88); assay: as above; type: cell-based; conditions: Staphylococcus aureus; for MIC: read-out: MIC Scope
# Protocol: as §1, §2, §3
# [6] = test system: Candida albicans ATCC 10231; assay: In vitro cell growth inhibition assay (OD595, filaments)
# [7] = test system: Enterococcus faecalis ATCC 700802; assay: microbe, parasite or virus in culture; type: cell-based; conditions: Enterococcus faecalis, ATCC700802
# [8] = test system: Enterococcus faecalis ATCC 700802; assay: In vivo protection of infected mice; parameters: species or system Kungming mice
# Protocol: (§4) The following experiments were performed by Pharmacology Lab, National Sichuan antibiotic industril institute, Chengdu, Sichuan.
# (§5) The agents described above were diluted with sterilized water to final concentrations of 10 mg/L, 5 mg/Land 2.5 mg/L.
# (§6) Staphylococcus aureus ATCC BAA-42(MRSA) and enterococcus faecalis ATCC 700802 were used as control strains.
# (§7) 170 mice (Kungming mice: 18˜22 g, 85 males and 85 females) were randomly divided into four groups and injected with a fatal dosage of staphylococci, enterococcus and E. coli intraperitoneally. […] Mice were inspected every 24 hours for 7-14 days. Dead mice were counted as positive results. The results are depicted in Table 3 and FIGS. 4 and 5A-B.
# [9] = test system: Staphylococcus aureus MRSA 02-18; assay: In vivo protection of infected mice; parameters: species or system Kungming mice
# Protocol: as §4, §5, §6, §7
# [10] = test system: Staphylococcus aureus MRSA BAA-42; assay: In vivo protection of infected mice; parameters: species or system Kungming mice
# Protocol: as §4, §5, §6, §7
# [11] = test system: Staphylococcus aureus MRSA BAA-42; assay: microbe, parasite or virus in culture; type: cell-based
# [12] = test system: Staphylococcus aureus ATCC 29213; assay: MIC against challenge strain (Table 3); type: cell-based
# Escherichia coli 02-1-65 [13] = assay: MIC against challenge strain (Table 3); type: cell-based; conditions: 02165, read-out: MIC
# [14] = test system: Staphylococcus aureus MRSA 02-18; assay: microbe, parasite or virus in culture; type: cell-based; conditions: Staphylococcus aureus, MRSA
# [15] = test system: Staphylococcus aureus ATCC 29213; assay: In vivo protection of infected mice; parameters: species or system Kungming mice; conditions: i.p. infection 3.6 × 10^5 cfu/ml
# Protocol: as §4
# (§8) The agents described above were diluted with sterilized water to final concentrations of 10 mg/L, 5 mg/Land 2.5 mg/L. […]
# as §7
# Escherichia coli 02-1-65 [16] = assay: In vivo protection of infected mice; parameters: species or system Kungming mice; conditions: i.p. infection 3.3 × 10^5 cfu/ml
# Protocol: as §4, §8, §7
# [17] = 1st Time, i.v. treatment after one hour
# [18] = 2nd Time (value in parentheses), i.v. treatment
molecule,measurement,setting,value
"Cc1onc(-c2ccccc2)c1C(=O)N[C@@H]1C(=O)N2[C@@H]1SC(C)(C)[C@@H]2C(=O)O [Oxacillin, oxacillin]",inhibition of growth,[1],did not inhibit the growth
same,MIC50,Acenetobactor (20),> 128 µg/mL
same,MIC90,Acenetobactor (20),> 128 µg/mL
same,MIC,Acenetobactor (20); read-out: MIC Scope,> 128 µg/mL
same,MIC50,"[2]; Staphylococcus aureus, MRSA",> 128 µg/mL
same,MIC90,"[2]; Staphylococcus aureus, MRSA",> 128 µg/mL
same,MIC,"[2]; Staphylococcus aureus, MRSA, read-out: MIC Scope",0.5 to 128 µg/mL
same,MIC,[3],0.015 to 0.25 µg/mL
same,MIC50,[3],0.03 µg/mL
same,MIC90,[3],0.25 µg/mL
same,MIC50,[4],64 µg/mL
same,MIC90,[4],> 128 µg/mL
same,MIC50,Enterococcus (20),16 µg/mL
same,MIC90,Enterococcus (20),> 128 µg/mL
same,MIC50,"[5]; 88 MSSA clinical isolates, read-out: MIC50",0.125 µg/mL
same,MIC90,"[5]; 88 MSSA clinical isolates, read-out: MIC90",0.125 µg/mL
same,MIC,[5]; 88 MSSA clinical isolates,0.015 to 0.25 µg/mL
"CC1(C)S[C@@H]2[C@H](NC(=O)[C@H](N)c3ccccc3)C(=O)N2[C@H]1C(=O)O [Ampicillin, sodium ampicillin]",effect on growth of Candida albicans,"[6]; Ph-CA 5 μg/ml, Ph-SA 5 μg/ml, ampicillin 50 μg/ml, amphotericin B 200 ng/ml, fluconazole 3 μg/ml",no effect on the growth
same,MIC,[7],0.125 µg/mL
same,ED50,"[8]; Enterococcus faecalis, ATCC700802",3 mg/kg
same,ED50,"[8]; Enterococcus faecalis, ATCC700802, 1 h",3.37 mg/kg
same,ED50,"[9]; Staphylococcus aureus, MRSA",> 20 mg/kg
same,ED50,"[9]; Staphylococcus aureus, MRSA, 1 h",32.7 mg/kg
same,ED50,[10]; Staphylococcus aureus,23.4 mg/kg
same,ED50,"[10]; Staphylococcus aureus, 1 h",25.2 mg/kg
same,MIC,[11]; Staphylococcus aureus,0.25 µg/mL
same,MIC50,Acenetobactor (20),> 128 µg/mL
same,MIC90,Acenetobactor (20),> 128 µg/mL
same,MIC Scope,[2]; 80 MRSA clinical isolates,0.06˜64 mg/l
same,MIC50,"[2]; Staphylococcus aureus, MRSA",16 µg/mL
same,MIC90,"[2]; Staphylococcus aureus, MRSA",32 µg/mL
same,MIC,[3],0.015 to 0.25 µg/mL
same,MIC50,[3],0.03 µg/mL
same,MIC90,[3],0.25 µg/mL
same,MIC Scope,[4]; 25 MRSE clinical isolates,0.06˜64 mg/l
same,MIC50,[4],16 µg/mL
same,MIC90,[4],64 µg/mL
same,MIC,Enterococcus (20),0.25 to 16 µg/mL
same,MIC50,Enterococcus (20),0.5 µg/mL
same,MIC90,Enterococcus (20),16 µg/mL
same,MIC50,[5]; MSSA,0.25 µg/mL
same,MIC90,[5]; MSSA,1 µg/mL
same,MIC,[5]; MSSA,0.015 to 0.25 µg/mL
same,MIC,"[12]; ATCC29213, read-out: MIC",< 0.015 µg/mL
same,MIC,Escherichia coli 02-1-65 [13],> 128 µg/mL
same,MIC,[14],8 µg/mL
same,ED50,"[15]; Staphylococcus aureus, ATCC29213, 2nd Time (value in parentheses), i.v. treatment, read-out: ED50",12.3 mg/kg
same,ED50,"[15]; Staphylococcus aureus, ATCC29213, 1 h, 1st Time, i.v. treatment after one hour, read-out: ED50",14.2 mg/kg
same,ED50,"Escherichia coli 02-1-65 [16]; Escherichia coli, 02165, 2nd Time (value in parentheses), i.v. treatment, read-out: ED50",> 30.8 mg/kg
same,ED50,"Escherichia coli 02-1-65 [16]; Escherichia coli, 02165, 1 h, 1st Time, i.v. treatment after one hour, read-out: ED50",> 30.8 mg/kg
"Cc1nnc(SCC2=C(C(=O)[O-])N3C(=O)[C@@H](NC(=O)Cn4cnnn4)[C@H]3SC2)s1.[Na+] [Cephazoid, sodium Cephazoid]",ED50,"[8]; 1st Time, mice, i.p. infection 8.0 × 10^6 cfu/ml, i.v. treatment after one hour",>10 mg/kg
same,ED50,"[8]; 2nd Time (value in parentheses), mice, i.p. infection 8.0 × 10^6 cfu/ml, i.v. treatment",(12.91) mg/kg
same,ED50,"[9]; 1st Time, mice, i.p. infection 1.7 × 10^5 cfu/ml, i.v. treatment after one hour",11.82 mg/kg
same,ED50,"[9]; 2nd Time (value in parentheses), mice, i.p. infection 1.7 × 10^5 cfu/ml, i.v. treatment",(>10) mg/kg
same,ED50,"[10]; 1st Time, mice, i.p. infection 5.5 × 10^5 cfu/ml, i.v. treatment after one hour",9.04 mg/kg
same,ED50,"[10]; 2nd Time (value in parentheses), mice, i.p. infection 5.5 × 10^5 cfu/ml, i.v. treatment",(8.78) mg/kg
same,MIC,[11]; Staphylococcus aureus MRSA BAA-42,0.5 µg/mL
same,MIC,[12],0.03 µg/mL
same,ED50,[15]; [17],29.03 mg/kg
same,ED50,[15]; [18],(11.20) mg/kg
same,ED50,Escherichia coli 02-1-65 [16]; [17],>30.77 mg/kg
same,ED50,Escherichia coli 02-1-65 [16]; [18],(>30.77) mg/kg
B1,inhibition effect as compared to PMC-CA,[6]; 20 μg/ml,about 30%
same,antifungal effect against Candida albicans in vitro and in vivo,[6]; general statement,no effect
